Reference: patent US20210139993A1, “METHOD FOR PREDICTING SURVIVAL IN CHILDREN WITH ACUTE LYMPHOBLASTIC LEUKEMIA” (UNIVERSITAT AUTONOMA DE BARCELONA, priority 2017, published 2021)

Test system: childhood ALL patients with adverse cytogenetics harboring t(9; 22)
Experiment: Kaplan-Meier survival of childhood ALL patients by cytogenetic risk group
Type: in vivo, human
Conditions: five of the six cases with adverse cytogenetics
Text: One hundred and seventy-three patients diagnosed with ALL and younger than 18 years were recruited from Sant Joan de Déu Hospital, Barcelona, Spain and from Cruces Hospital, Barakaldo, Spain between 1996 and 2012. Patients were all from Caucasian descent. […] Samples were extracted when patients were at complete remission or without cytogenetic aberrations affecting chromosomes where the polymorphisms are located. Clinical data were collected at diagnosis, including sex, age, leukemia type (T-cell, B-cell or mixed), WBC count, cytogenetic risk group and treatment protocol (Table 1). The different cytogenetic risk groups were classified according to the criteria from the Spanish Society of Pediatric Hematology and Oncology as follow: Presence of t(9; 22), t(4; 11) or MLL rearrangements at 11q23, or hipodiploidy (<44 chromosomes) was considered adverse group. Presence of 412; 21) or hiperdiploidy (>50 chromosomes) was considered favorable and all other cases were considered to belong to intermediate cytogenetic risk group. […] Every genotype was analyzed separately and moreover, in case of CNVs, null genotypes were tested vs. non-null genotypes, and in case of SNPs, heterozygotes were grouped together with either homozygote genotype.

`Cc1ccc(NC(=O)c2ccc(CN3CCN(C)CC3)cc2)cc1Nc1nccc(-c2cccnc2)n1` [imatinib] was tested, and the treatment outcome was “successful”.
